Experimental data: patent publication US8754115B2, “Fungicidal pyrazoles” (E I du Pont de Nemours and Company, priority 2010, dated 2014)
Marks after values point to notes of the source that are not given here.

Tests used:
Assay type in all cases: in vivo
[1] = system: Blumeria graminis f. sp. tritici; assay: Test F: preventive spray on wheat seedlings, visual disease rating (wheat powdery mildew)
Procedure, shortened: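 Visual ratings (0–100% control relative to controls) taken 8 days after spore-dust inoculation at 20° C. Inoculation followed one day after a protective run-off spray of 200 ppm suspension, equal to 800 g/ha, or 40 ppm where flagged, made in acetone/water with 250 ppm surfactant.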

Septoria tritici = assay: Test D: preventive spray on wheat seedlings, visual disease rating (wheat leaf blotch)
Procedure, shortened: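 Protection was scored visually on a 0–100% disease-control scale versus controls, 19 days after plants were moved to 20 °C following 48 h of 24 °C saturated humidity. Spore inoculation with S. tritici took place one day after a preventive run-off spray, usually at 200 ppm (800 g/ha) and at 40 ppm where asterisked.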

Botrytis cinerea = assay: Test A: preventive spray on tomato seedlings, visual disease rating (tomato Botrytis)
Procedure, shortened: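 Preventive test: Botrytis cinerea spores applied one day after run-off spraying at 200 ppm (≈800 g/ha), or 40 ppm where asterisked. Incubation 48 h at 20 °C in saturated air, then 3 days at 24 °C; disease scored visually from 0 (no control) to 100 (complete control) versus untreated.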

[2] = system: Puccinia recondite f. sp. tritici; assay: Test E1: curative spray on wheat seedlings after inoculation, visual disease rating (wheat leaf rust)
Procedure, shortened: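 Seedlings inoculated with rust spores, held 24 h in saturated atmosphere at 20 °C, then 2 days at 20 °C before curative spray to run-off with test suspension (200 ppm ≈ 800 g/ha, or 40 ppm where marked) in acetone/water with surfactant. Visual disease control rating (0–100) after 6 further days at 20 °C.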

[3] = system: Puccinia recondite f. sp. tritici; assay: Test E2: preventive spray on wheat seedlings, visual disease rating (wheat leaf rust)
Procedure, shortened: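 Wheat seedlings were inoculated with leaf rust spores one day after a run-off spray of compound at 200 ppm (asterisk: 40 ppm) in 50/50 acetone/water with 250 ppm Trem 014. Incubation: 24 h saturated humidity, 20 °C; then 7 days growth chamber, 20 °C. Disease control scored visually, 0–100% relative to controls.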

Alternaria solani = assay: Test B: preventive spray on tomato seedlings, visual disease rating (tomato early blight)
Procedure, shortened: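 Compounds were suspended at 200 ppm (asterisked values at 40 ppm) in acetone/water with surfactant and sprayed to run-off on tomato seedlings, 200 ppm being equivalent to 800 g/ha. A. solani spores were inoculated the next day, with 48 h at 27 °C in saturated air, then 5 days at 20 °C. Disease control was rated visually, 0–100% relative to controls.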

Septoria nodorum = assay: Test C: preventive spray on wheat seedlings, visual disease rating (Septoria glume blotch)
Procedure, shortened: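 Wheat seedlings were sprayed to run-off with 200 ppm suspension (40 ppm where marked; 200 ppm ≈ 800 g/ha) in acetone/water with 250 ppm Trem 014, then inoculated next day with Septoria nodorum spores. Incubation was 48 h saturated at 24 °C, then 6 days at 20 °C; visual rating 0–100% disease control versus controls.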

[4] = no asterisk: standard test suspension, not 40 ppm
[5] = asterisk: 40 ppm test suspension
[6] = no asterisk: standard test suspension, not 40 ppm, 100 = 100% disease control, 0 = none

Cc1nn(C)c(-c2c(F)cccc2F)c1C(O)c1ccc(F)cc1Cl (single isomer, unassigned) [compound 87]
Test F rating (% disease control) [1, 4]: 99% | Test D rating (% disease control) (Septoria tritici; [5]): 99* % | Test A rating (% disease control) (Botrytis cinerea; [6]): 100% | Test E1 rating (% disease control) [2, 5]: 0* % | Test E2 rating (% disease control) [3, 4]: 99% | Test B rating (% disease control) (Alternaria solani; [5]): 0* % | Test C rating (% disease control) (Septoria nodorum; [4]): 100%

Cc1nn(C)c(-c2ccc(F)cc2Cl)c1C(O)c1ccc(F)cc1Br (centres unmarked) [compound 23]
Test F rating (% disease control) [1, 4]: 84% | Test D rating (% disease control) (Septoria tritici; [4]): 100% | Test A rating (% disease control) (Botrytis cinerea; [6]): 100% | Test E1 rating (% disease control) [2, 4]: 98% | Test E2 rating (% disease control) [3, 4]: 100% | Test B rating (% disease control) (Alternaria solani; [4]): 67% | Test C rating (% disease control) (Septoria nodorum; [4]): 87%

Cc1nn(C)c(-c2c(F)cc(F)cc2F)c1C(=O)c1ccc(F)cc1F [compound 60]
Test F rating (% disease control) [1, 4]: 99% | Test D rating (% disease control) (Septoria tritici; [4]): 0% | Test A rating (% disease control) (Botrytis cinerea; [6]): 75% | Test E1 rating (% disease control) [2, 4]: 0% | Test E2 rating (% disease control) [3, 4]: 55% | Test B rating (% disease control) (Alternaria solani; [4]): 0% | Test C rating (% disease control) (Septoria nodorum; [4]): 0%

Cc1nn(C)c(-c2ccc(F)cc2Cl)c1Oc1ccc(C#N)cc1Cl [compound 43]
Test F rating (% disease control) [1, 4]: 97% | Test D rating (% disease control) (Septoria tritici; [4]): 100% | Test A rating (% disease control) (Botrytis cinerea; [6]): 98% | Test E1 rating (% disease control) [2, 4]: 0% | Test E2 rating (% disease control) [3, 4]: 98% | Test B rating (% disease control) (Alternaria solani; [4]): 0% | Test C rating (% disease control) (Septoria nodorum; [4]): 0%

Cc1nn(C)c(-c2ccc(F)cc2Cl)c1Nc1ccc(F)cc1Br [compound 58]
Test F rating (% disease control) [1, 5]: 97* % | Test D rating (% disease control) (Septoria tritici; [5]): 100* % | Test A rating (% disease control) (Botrytis cinerea; [5]): 100* % | Test E1 rating (% disease control) [2, 5]: 0* % | Test E2 rating (% disease control) [3, 5]: 98* % | Test B rating (% disease control) (Alternaria solani; [5]): 8* % | Test C rating (% disease control) (Septoria nodorum; [5]): 0* %

Cc1nn(C)c(-c2ccc(F)cc2Br)c1C(O)c1c(F)cc(F)cc1F (centres unmarked) [compound 82]
Test F rating (% disease control) [1, 4]: 100% | Test D rating (% disease control) (Septoria tritici; [4]): 99% | Test A rating (% disease control) (Botrytis cinerea; [6]): 99% | Test E1 rating (% disease control) [2, 4]: 27% | Test E2 rating (% disease control) [3, 4]: 100% | Test B rating (% disease control) (Alternaria solani; [4]): 100% | Test C rating (% disease control) (Septoria nodorum; [4]): 92%

Cc1nn(C)c(-c2ccc(F)cc2Cl)c1Nc1ccc(F)cc1Cl [compound 42]
Test F rating (% disease control) [1, 4]: 100% | Test D rating (% disease control) (Septoria tritici; [4]): 100% | Test A rating (% disease control) (Botrytis cinerea; [6]): 99% | Test E1 rating (% disease control) [2, 4]: 32% | Test E2 rating (% disease control) [3, 4]: 99% | Test B rating (% disease control) (Alternaria solani; [4]): 99% | Test C rating (% disease control) (Septoria nodorum; [4]): 0%

Cc1nn(C)c(-c2ccc(F)cc2F)c1Oc1ccc(F)cc1F [compound 13]
Test F rating (% disease control) [1, 4]: 72% | Test D rating (% disease control) (Septoria tritici; [4]): 0% | Test A rating (% disease control) (Botrytis cinerea; [6]): 100% | Test E1 rating (% disease control) [2, 4]: 66% | Test E2 rating (% disease control) [3, 4]: 0% | Test B rating (% disease control) (Alternaria solani; [4]): 0% | Test C rating (% disease control) (Septoria nodorum; [4]): 0%

COc1ccc(-c2c(Oc3ccc(F)cc3Cl)c(C)nn2C)c(Cl)c1 [compound 31]
Test F rating (% disease control) [1, 4]: 96% | Test D rating (% disease control) (Septoria tritici; [4]): 100% | Test A rating (% disease control) (Botrytis cinerea; [6]): 100% | Test E1 rating (% disease control) [2, 4]: 0% | Test E2 rating (% disease control) [3, 4]: 92% | Test B rating (% disease control) (Alternaria solani; [4]): 0% | Test C rating (% disease control) (Septoria nodorum; [4]): 0%

5-(2,6-difluorophenyl)-α-(4-fluoro-2-methylphenyl)-3-methoxy-1-methyl-1H-pyrazole-4-methanol [Compound 157]
Test F rating (% disease control) [1, 4]: 98% | Test D rating (% disease control) (Septoria tritici; [4]): 100% | Test A rating (% disease control) (Botrytis cinerea; [6]): 100% | Test E1 rating (% disease control) [2, 4]: 65% | Test E2 rating (% disease control) [3, 4]: 89% | Test B rating (% disease control) (Alternaria solani; [4]): 93% | Test C rating (% disease control) (Septoria nodorum; [4]): 0%

Cc1nn(C)c(-c2ccc(F)cc2Cl)c1C(O)c1ccc(C#N)cc1F (centres unmarked) [compound 25]
Test F rating (% disease control) [1, 4]: 96% | Test D rating (% disease control) (Septoria tritici; [4]): 100% | Test A rating (% disease control) (Botrytis cinerea; [6]): 100% | Test E1 rating (% disease control) [2, 4]: 9% | Test E2 rating (% disease control) [3, 4]: 100% | Test B rating (% disease control) (Alternaria solani; [4]): 99% | Test C rating (% disease control) (Septoria nodorum; [4]): 89%

Cc1nn(C)c(-c2c(F)cccc2F)c1C(=O)c1ccc(F)cc1F [compound 24]
Test F rating (% disease control) [1, 4]: 96% | Test D rating (% disease control) (Septoria tritici; [4]): 0% | Test A rating (% disease control) (Botrytis cinerea; [6]): 9% | Test E1 rating (% disease control) [2, 4]: 9% | Test E2 rating (% disease control) [3, 4]: 79% | Test B rating (% disease control) (Alternaria solani; [4]): 0% | Test C rating (% disease control) (Septoria nodorum; [4]): 0%

Cn1nc(C#N)c(C(=O)c2ccc(F)cc2Cl)c1-c1c(F)cccc1F [Compound 52, 4-(2-chloro-4-fluorobenzoyl)-5-(2,6-difluorophenyl)-1-methyl-1H-pyrazole-3-carbonitrile]
Test F rating (% disease control) [1, 4]: 100% | Test D rating (% disease control) (Septoria tritici; [4]): 100% | Test A rating (% disease control) (Botrytis cinerea; [6]): 100% | Test E1 rating (% disease control) [2, 4]: 98% | Test E2 rating (% disease control) [3, 4]: 100% | Test B rating (% disease control) (Alternaria solani; [4]): 100% | Test C rating (% disease control) (Septoria nodorum; [4]): 99%

Cc1nn(C)c(-c2c(Cl)cccc2Cl)c1C(O)c1ccc(F)cc1Cl (centres unmarked) [compound 69]
Test F rating (% disease control) [1, 4]: 97% | Test D rating (% disease control) (Septoria tritici; [4]): 100% | Test A rating (% disease control) (Botrytis cinerea; [6]): 99% | Test E1 rating (% disease control) [2, 4]: 0% | Test E2 rating (% disease control) [3, 4]: 99% | Test B rating (% disease control) (Alternaria solani; [4]): 100% | Test C rating (% disease control) (Septoria nodorum; [4]): 96%

Cc1nn(C)c(-c2c(F)cccc2Cl)c1C(O)c1c(F)cc(F)cc1F (centres unmarked) [compound 34]
Test F rating (% disease control) [1, 4]: 100% | Test D rating (% disease control) (Septoria tritici; [4]): 100% | Test A rating (% disease control) (Botrytis cinerea; [6]): 100% | Test E1 rating (% disease control) [2, 4]: 84% | Test E2 rating (% disease control) [3, 4]: 99% | Test B rating (% disease control) (Alternaria solani; [4]): 99% | Test C rating (% disease control) (Septoria nodorum; [4]): 100%

Cc1nn(C)c(-c2c(F)cccc2F)c1[S+]([O-])c1ccc(Cl)cc1 (centres unmarked) [compound 63]
Test F rating (% disease control) [1, 4]: 76% | Test D rating (% disease control) (Septoria tritici; [4]): 0% | Test A rating (% disease control) (Botrytis cinerea; [6]): 0% | Test E1 rating (% disease control) [2, 4]: 0% | Test E2 rating (% disease control) [3, 4]: 28% | Test B rating (% disease control) (Alternaria solani; [4]): 0% | Test C rating (% disease control) (Septoria nodorum; [4]): 0%

Cc1nn(C)c(-c2c(F)cccc2F)c1C(F)c1ccc(F)cc1Cl (centres unmarked) [Compound 54]
Test F rating (% disease control) [1, 4]: 99% | Test D rating (% disease control) (Septoria tritici; [4]): 100% | Test A rating (% disease control) (Botrytis cinerea; [6]): 100% | Test E1 rating (% disease control) [2, 4]: 100% | Test E2 rating (% disease control) [3, 4]: 99% | Test B rating (% disease control) (Alternaria solani; [4]): 100% | Test C rating (% disease control) (Septoria nodorum; [4]): 99%
